Where two headings read alike, the source gives them in different places.
Experiments:
Assay type in all cases: biochemical
CDK2/CCNE1 = CDK2/CCNE1 (Homo sapiens, UniProt P24941); experiment: CDK2 homogeneous time-resolved fluorescence (HTRF) kinase assay; conditions: CDK2/CCNE
Summary of the method: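 Compounds were titrated 11-point, half-log from typically 10 μM against 3 nM CDK2/cyclin E1 at 1 mM ATP, with a 20 min enzyme preincubation. Phosphorylation of 50 nM ULight-4E-BP1 peptide over 60 min at 23 °C was detected by europium anti-phospho antibody TR-FRET.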

CDK1/CCNB1 = CDK1/CCNB1 (Homo sapiens, UniProt P06493); experiment: CDK1 homogeneous time-resolved fluorescence (HTRF) kinase assay; conditions: >250 nM; CDK1/CCNB; read-out: CDK1/CCNB IC50 >250 nM
CDK1/CCNB1, sequence (P06493 whole entry): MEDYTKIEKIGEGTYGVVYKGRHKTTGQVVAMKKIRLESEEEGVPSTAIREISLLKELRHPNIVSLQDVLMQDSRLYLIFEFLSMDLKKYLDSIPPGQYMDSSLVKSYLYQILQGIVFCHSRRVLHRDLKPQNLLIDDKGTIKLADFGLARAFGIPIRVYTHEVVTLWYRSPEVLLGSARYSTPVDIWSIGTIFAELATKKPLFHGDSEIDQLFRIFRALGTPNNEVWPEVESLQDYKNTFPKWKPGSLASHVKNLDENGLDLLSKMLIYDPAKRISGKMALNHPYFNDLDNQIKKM
CDK1/CCNB1, sequence (P14635 whole entry partner): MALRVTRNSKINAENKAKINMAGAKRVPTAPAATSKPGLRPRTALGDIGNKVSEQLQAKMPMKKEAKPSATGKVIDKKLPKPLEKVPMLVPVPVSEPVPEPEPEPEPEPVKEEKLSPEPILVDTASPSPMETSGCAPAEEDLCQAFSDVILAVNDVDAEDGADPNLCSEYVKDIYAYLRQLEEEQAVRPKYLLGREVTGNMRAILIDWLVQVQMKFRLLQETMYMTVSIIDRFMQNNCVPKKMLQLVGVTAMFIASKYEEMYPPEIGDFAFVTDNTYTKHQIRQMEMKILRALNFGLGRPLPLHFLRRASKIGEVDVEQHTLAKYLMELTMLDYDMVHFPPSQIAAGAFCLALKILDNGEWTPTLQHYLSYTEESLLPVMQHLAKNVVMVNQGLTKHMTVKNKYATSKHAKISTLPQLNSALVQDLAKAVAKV
Summary of the method: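 Compounds, titrated 11 points in half-log steps typically from 10 μM, were incubated with enzyme for 20 min before ATP (1 mM) and ULight-labelled eIF4E-binding protein 1 peptide (50 nM) started a 60-min reaction at 23 °C. Phosphopeptide was detected by europium-antibody TR-FRET and IC50 values were derived.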

CDK6/CCND1 = CDK6/CCND1 (Homo sapiens, UniProt Q00534); experiment: CDK6 homogeneous time-resolved fluorescence (HTRF) kinase assay; conditions: >250 nM; CDK6/CCND; 1 mM ATP; read-out: CDK6/CCND IC50, >250 nM
CDK6/CCND1, sequence (Q00534 whole entry): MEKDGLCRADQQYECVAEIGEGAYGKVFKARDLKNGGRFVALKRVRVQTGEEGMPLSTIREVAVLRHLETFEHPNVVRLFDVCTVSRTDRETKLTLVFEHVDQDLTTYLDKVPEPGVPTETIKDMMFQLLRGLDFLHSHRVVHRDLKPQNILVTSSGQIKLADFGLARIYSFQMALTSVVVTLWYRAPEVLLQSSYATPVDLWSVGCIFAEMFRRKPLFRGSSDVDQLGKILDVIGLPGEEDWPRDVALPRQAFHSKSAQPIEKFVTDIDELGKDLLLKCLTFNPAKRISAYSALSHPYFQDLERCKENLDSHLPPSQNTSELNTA
CDK6/CCND1, sequence (P24385 whole entry partner): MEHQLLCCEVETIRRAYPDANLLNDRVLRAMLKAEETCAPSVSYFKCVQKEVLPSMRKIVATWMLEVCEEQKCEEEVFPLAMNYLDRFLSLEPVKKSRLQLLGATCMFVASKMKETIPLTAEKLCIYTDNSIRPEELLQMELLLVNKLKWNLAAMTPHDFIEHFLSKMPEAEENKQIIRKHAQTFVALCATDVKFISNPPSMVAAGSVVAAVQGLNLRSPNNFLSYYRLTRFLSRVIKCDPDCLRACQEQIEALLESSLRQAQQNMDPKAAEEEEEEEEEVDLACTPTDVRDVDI
Summary of the method: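 1 nM enzyme, 1 mM ATP, 50 nM ULight-4E-BP1 (Thr37/46) peptide, 1% DMSO; 20 min compound preincubation, 60 min reaction, 23 °C. EDTA stop, 2 nM Eu-anti-phospho-4E-BP1 antibody 60 min. TR-FRET 665 nm (or 665/615 ratio); IC50 from 11-point half-log titration, top 10 μM.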

CDK4/CCND3 = CDK4/CCND3 (Homo sapiens, UniProt P11802); experiment: CDK4 homogeneous time-resolved fluorescence (HTRF) kinase assay; conditions: >250 nM; CDK4/CCND; read-out: CDK4/CCND IC50, >250 nM
CDK4/CCND3, sequence (P11802 whole entry): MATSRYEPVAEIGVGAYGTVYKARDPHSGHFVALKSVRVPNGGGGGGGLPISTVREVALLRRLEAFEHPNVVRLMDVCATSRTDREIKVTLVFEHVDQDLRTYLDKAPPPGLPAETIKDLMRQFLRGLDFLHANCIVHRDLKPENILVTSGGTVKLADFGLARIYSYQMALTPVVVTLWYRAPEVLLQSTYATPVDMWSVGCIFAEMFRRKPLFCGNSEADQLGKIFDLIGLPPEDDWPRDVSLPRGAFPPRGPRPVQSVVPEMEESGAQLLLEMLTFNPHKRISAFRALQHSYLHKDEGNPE
CDK4/CCND3, sequence (P30281 whole entry partner): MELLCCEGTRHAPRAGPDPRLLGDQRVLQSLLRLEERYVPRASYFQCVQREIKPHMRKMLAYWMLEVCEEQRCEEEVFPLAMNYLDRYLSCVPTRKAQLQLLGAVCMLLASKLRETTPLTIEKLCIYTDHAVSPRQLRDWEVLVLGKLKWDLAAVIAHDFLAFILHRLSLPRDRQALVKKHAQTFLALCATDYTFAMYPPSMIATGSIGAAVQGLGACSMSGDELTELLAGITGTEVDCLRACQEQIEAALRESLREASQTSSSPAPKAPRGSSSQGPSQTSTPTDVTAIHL
Summary of the method: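 Compounds were preincubated with 1.5 nM CDK4/CCND3 for 20 min at 23 °C in HEPES buffer (pH not given), then reacted 60 min with 1 mM ATP and 50 nM ULight-4E-BP1 (Thr37/46) peptide. EDTA stop, Eu-anti-phospho-4E-BP1 detection; 665/615 nm ratio; IC50 from 11-point half-log titrations from 10 μM.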

[1] = <25 nM, read-out: CDK2/CCNE IC50, <25 nM
[2] = 25-250 nM, read-out: CDK2/CCNE IC50, 25-250 nM

For `COc1cc(N2CCOCC2)nc(NS(=O)(=O)c2ccc(Nc3cc4c(-c5ccc6c(cnn6CC(O)(C(F)(F)F)C(F)(F)F)c5C)nccc4cn3)cc2)n1` [Ex 707, N-(4-methoxy-6-morpholinopyrimidin-2-yl)-4-((5-(4-methyl-1-(3,3,3-trifluoro-2-hydroxy-2-(trifluoromethyl)propyl)-1H-indazol-5-yl)-2,6-naphthyridin-3-yl)amino)benzenesulfonamide], the IC50 (CDK2/CCNE1; [1]) was under 25 nM, the IC50 (CDK1/CCNB1) was over 250 nM and the IC50 (CDK6/CCND1) was over 250 nM. The IC50 (CDK4/CCND3) was over 250 nM.
Compound `COc1ccc(NS(=O)(=O)c2ccc(Nc3cc4c(-c5ccc6c(cnn6CC(O)(C(F)(F)F)C(F)(F)F)c5C)nccc4cn3)cc2)cc1C(C)(C)O` [Ex 709, N-(3-(2-hydroxypropan-2-yl)-4-methoxyphenyl)-4-((5-(4-methyl-1-(3,3,3-trifluoro-2-hydroxy-2-(trifluoromethyl)propyl)-1H-indazol-5-yl)-2,6-naphthyridin-3-yl)amino)benzenesulfonamide] has an IC50 (CDK2/CCNE1; [2]) of 25 to 250 nM, an IC50 (CDK1/CCNB1) of over 250 nM and an IC50 (CDK6/CCND1) of over 250 nM. For the same compound, the IC50 (CDK4/CCND3) was over 250 nM.
For `Cc1c(-c2nccc3cnc(Nc4ccc(S(=O)(=O)Nc5cc(C(C)(C)O)ccn5)cc4)cc23)ccc2c1cnn2CC(O)(C(F)(F)F)C(F)(F)F` [Ex 710, N-(4-(2-hydroxypropan-2-yl)pyridin-2-yl)-4-((5-(4-methyl-1-(3,3,3-trifluoro-2-hydroxy-2-(trifluoromethyl)propyl)-1H-indazol-5-yl)-2,6-naphthyridin-3-yl)amino)benzenesulfonamide], the IC50 (CDK2/CCNE1; [1]) was under 25 nM, the IC50 (CDK1/CCNB1) was over 250 nM and the IC50 (CDK6/CCND1) was over 250 nM. For the same compound, the IC50 (CDK4/CCND3) was over 250 nM.
Compound `Cc1c(-c2nccc3cnc(Nc4ccc(S(=O)(=O)Nc5cccc(C(C)(C)O)n5)cc4)cc23)ccc2c1cnn2CC(O)(C(F)(F)F)C(F)(F)F` [Ex 711, N-(6-(2-hydroxypropan-2-yl)pyridin-2-yl)-4-((5-(4-methyl-1-(3,3,3-trifluoro-2-hydroxy-2-(trifluoromethyl)propyl)-1H-indazol-5-yl)-2,6-naphthyridin-3-yl)amino)benzenesulfonamide] has an IC50 (CDK2/CCNE1; [1]) of under 25 nM, an IC50 (CDK1/CCNB1) of over 250 nM and an IC50 (CDK6/CCND1) of over 250 nM. For the same compound, the IC50 (CDK4/CCND3) was over 250 nM.
In the case of `Cc1c(-c2nccc3cnc(Nc4ccc(S(=O)(=O)Nc5cccc(C(C)(C)O)c5)cc4)cc23)ccc2c1cnn2CC(O)(C(F)(F)F)C(F)(F)F` [Ex 712, N-(3-(2-hydroxypropan-2-yl)phenyl)-4-((5-(4-methyl-1-(3,3,3-trifluoro-2-hydroxy-2-(trifluoromethyl)propyl)-1H-indazol-5-yl)-2,6-naphthyridin-3-yl)amino)benzenesulfonamide], the IC50 (CDK2/CCNE1; [2]) is reported as 25 to 250 nM, the IC50 (CDK1/CCNB1) is reported as over 250 nM and the IC50 (CDK6/CCND1) is reported as over 250 nM. It also gave an IC50 (CDK4/CCND3) of over 250 nM.
`Cc1c(-c2nccc3cnc(Nc4ccc(S(=O)(=O)Nc5ccccc5N5CCOCC5)cc4)cc23)ccc2c1cnn2CC(O)(C(F)(F)F)C(F)(F)F` [Ex 713, 4-((5-(4-methyl-1-(3,3,3-trifluoro-2-hydroxy-2-(trifluoromethyl)propyl)-1H-indazol-5-yl)-2,6-naphthyridin-3-yl)amino)-N-(2-morpholinophenyl)benzenesulfonamide] gave an IC50 (CDK2/CCNE1; [2]) of 25 to 250 nM, an IC50 (CDK1/CCNB1) of over 250 nM and an IC50 (CDK6/CCND1) of over 250 nM. It also gave an IC50 (CDK4/CCND3) of over 250 nM.
`COc1ccccc1NS(=O)(=O)c1ccc(Nc2cc3c(-c4ccc5c(cnn5CC(O)(C(F)(F)F)C(F)(F)F)c4C)nccc3cn2)cc1` [Ex 714, N-(2-methoxyphenyl)-4-((5-(4-methyl-1-(3,3,3-trifluoro-2-hydroxy-2-(trifluoromethyl)propyl)-1H-indazol-5-yl)-2,6-naphthyridin-3-yl)amino)benzenesulfonamide] gave an IC50 (CDK2/CCNE1; [2]) of 25 to 250 nM, an IC50 (CDK1/CCNB1) of over 250 nM and an IC50 (CDK6/CCND1) of over 250 nM. For the same compound, the IC50 (CDK4/CCND3) was over 250 nM.
In the case of `Cc1ccccc1NS(=O)(=O)c1ccc(Nc2cc3c(-c4ccc5c(cnn5CC(O)(C(F)(F)F)C(F)(F)F)c4C)nccc3cn2)cc1` [Ex 715, 4-((5-(4-methyl-1-(3,3,3-trifluoro-2-hydroxy-2-(trifluoromethyl)propyl)-1H-indazol-5-yl)-2,6-naphthyridin-3-yl)amino)-N-(o-tolyl)benzenesulfonamide], the IC50 (CDK2/CCNE1; >250 nM, read-out: CDK2/CCNE IC50, >250 nM) is reported as over 250 nM, the IC50 (CDK1/CCNB1) is reported as over 250 nM and the IC50 (CDK6/CCND1) is reported as over 250 nM. It also gave an IC50 (CDK4/CCND3) of over 250 nM.
